Test results as given in paper PMC11249646, “Small-Molecule Disruptors of the Interaction between Calcium- and Integrin-Binding Protein 1 and Integrin αIIbβ3 as Novel Antiplatelet Agents” (ACS Pharmacology & Translational Science, 2024).
Like-named read-outs stand apart in the source and are kept apart here.

Target: T1, CIB1 and αIIb interaction (CIB1-GST : F-αIIb peptide) (Homo sapiens, UniProt Q99828)
T1 construct: made in house; host or cells: BL-21 plus RIL cells (E. coli)
T1 sequence (Q99828 1-191): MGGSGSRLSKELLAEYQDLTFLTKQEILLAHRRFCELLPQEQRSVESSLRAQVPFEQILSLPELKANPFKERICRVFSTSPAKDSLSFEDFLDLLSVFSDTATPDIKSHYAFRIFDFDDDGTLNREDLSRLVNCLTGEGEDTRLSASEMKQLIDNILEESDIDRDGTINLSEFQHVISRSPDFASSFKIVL
Test: FP assay, 1536-well qHTS format (primary and confirmatory screen)
Type: binding
Details: for Efficacy (%): negative = inhibition; for Curve Class: negative sign = inhibitory curve; for IC50: read-out: IC50

[1] = qHTS primary screen of LOPAC/NPACT libraries
[2] = qHTS primary screen hits, Table S2
[3] = qHTS primary screen hits, Table S2, several classes where COUNT > 1
[4] = qHTS FP screen hits, Table S2, one class per curve where COUNT > 1

Row | SMILES | Efficacy (%) [1] [%] | Curve Class [1] | IC50 [1] [µM] | Efficacy (%) [2] [%] | IC50 [2] [µM] | other results
1 | O=C1Cc2c([nH]c3ccc(Br)cc23)-c2ccccc2N1 [NCGC00015582-06] | -19 | -1.4 | 20 |  |  | 
2 | Ic1ccccc1CNC1C2CCN(CC2)C1C(c1ccccc1)c1ccccc1.O=C(O)C(=O)O (centres unmarked) [NCGC00015587-03] | -20 | -3 | 63.1 |  |  | 
3 | CCCc1c(OCCCOc2ccc(OCC(=O)O)cc2)ccc(C(C)=O)c1O [NCGC00015599-05] | -25 | -2.2 | 50.1 |  |  | 
4 | CN1CCc2ccccc2Cc2[nH]c3ccccc3c2CC1 [NCGC00015614-05] | -28 | -2.4 | 31.6 |  |  | 
5 | Cc1c(OCC(F)(F)F)ccnc1C[S+]([O-])c1nc2ccccc2[nH]1 (centres unmarked) [NCGC00015615-15] |  |  |  | -26 | 50.1 | Curve Class [2]: -2.4
6 | O=C(O)/C(=C/c1c(C(=O)O)[nH]c2cc(Cl)cc(Cl)c12)c1ccccc1 [NCGC00015639-04] | -29 | -2.2 | 56.2 |  |  | 
7 | CC(C)NCC(O)c1cc(O)cc(O)c1.CC(C)NCC(O)c1cc(O)cc(O)c1.O=S(=O)(O)O (centres unmarked) [NCGC00015655-09] |  |  |  | -51 | 56.2 | Curve Class [3]: -2.4
8 | CN1CCC2(CCN3CCc4c(oc5ccccc45)C3C2)N(C)C1=O.Cl (centres unmarked) [NCGC00015699-03] | -11 | -1.4 | 17.8 |  |  | 
9 | CN(N=O)c1ccc(O)c(O)c1 [NCGC00015706-04] |  |  |  | -66 | 56.2 | Curve Class [3]: -2.4
10 | CCOC(=O)C1=C(C)NC(C)=C(C(=O)OC)C1c1cccc([N+](=O)[O-])c1 (centres unmarked) [NCGC00015713-10] | -23 | -2.4 | 63.1 |  |  | 
11 | O=c1[nH]c2cc(C(F)(F)F)ccc2n1-c1cc(C(F)(F)F)ccc1O [NCGC00015720-07] | -30 | -2.4 | 44.7 |  |  | 
12 | CN1Cc2c(N)cccc2C(c2ccccc2)C1.O=C(O)/C=C\C(=O)O (centres unmarked) [NCGC00015727-06] |  |  |  | -62 | 50.1 | Curve Class [2]: -2.2
13 | O=C1C(SCCO)=C(SCCO)C(=O)c2ccccc21 [NCGC00015729-08] |  |  |  | -77 | 44.7 | Curve Class [2]: -2.2
14 | O=C(Nc1ccc([N+](=O)[O-])cc1Cl)c1cc(Cl)ccc1O [NCGC00015735-08] | -12 | -2.4 | 63.1 |  |  | 
15 | COC(=O)C1=C(C)NC(C)=C(C(=O)OC)C1c1ccccc1[N+](=O)[O-] [NCGC00015748-13] | -24 | -1.2 | 11.2 |  |  | 
16 | CCCCCCC/C=C\CCCCCCCCC(=O)O [NCGC00015764-04] | -27 | -2.4 | 31.6 |  |  | 
17 | O=c1onc2cnc3ccccc3n12 [NCGC00015770-05] | -21 | -2.4 | 56.2 |  |  | 
18 | CCCC(C(=O)OCCN(CC)CC)(c1ccccc1)c1ccccc1.Cl [NCGC00015799-04] | -14 | -2.4 | 56.2 |  |  | 
19 | O=C(O)C(F)(F)F.O=c1[nH]c2ccccc2n1C1CCN(CCCC(c2ccc(F)cc2)c2ccc(F)cc2)CC1 [NCGC00015802-18] |  |  |  | -216 | 89.1 | Curve Class [2]: -3
20 | C=Cc1c(C)c2cc3[nH]c(cc4nc(cc5nc(cc1[nH]2)C(C)=C5CCC(=O)O)C(CCC(=O)O)=C4C)c(C)c3C=C [NCGC00015844-10] |  |  |  |  |  | Efficacy (%) (qHTS FP screen hits, Table S2): -75%; Curve Class [4]: -2.2; IC50 (qHTS FP screen hits, Table S2): 42.2 µM
21 | O.O.O=c1c(O)c(-c2ccc(O)c(O)c2)oc2cc(O)cc(O)c12 [NCGC00015870-27] |  |  |  | -30 |  | 
22 | Cc1nc2sccn2c(=O)c1CCN1CCC(=C(c2ccc(F)cc2)c2ccc(F)cc2)CC1 [NCGC00015877-09] | -22 | -2.2 | 56.2 |  |  | 
23 | COC(=O)C1C(O)CCC2CN3CCc4c([nH]c5ccccc45)C3CC21 (centres unmarked) [NCGC00015878-08] | -68 | -2.2 |  |  |  | 
24 | O=C(c1cc(O)c(O)c([N+](=O)[O-])c1)c1ccccc1F [NCGC00015881-04] | -35 | -2.2 | 39.8 |  |  | 
25 | COc1ccccc1N1CCNCC1.Cl [NCGC00015906-04] |  |  |  | -80 | 79.4 | Curve Class [2]: -3
26 | O=C(O)c1ccccc1Nc1cccc(OCc2ccc3ccccc3n2)c1 [NCGC00015965-05] |  |  |  | -42 | 50.1 | Curve Class [2]: -2.2

Row | SMILES | Efficacy (%) [1] [%] | Curve Class [1] | IC50 [1] [µM] | Efficacy (%) [2] [%] | IC50 [2] [µM] | other results
27 | O=C1CCC(N2C(=O)c3ccccc3C2=O)C(=O)N1 (centres unmarked) [NCGC00015989-17] |  |  |  | -28 | 50.1 | Curve Class [3]: -2.4
28 | CCN(CC)C(=S)SSC(=S)N(CC)CC [NCGC00016000-10] |  |  |  | -67 | 35.8 | 
29 | C/C(=C\c1ccc(C(=O)O)cc1)c1ccc2c(c1)C(C)(C)CCC2(C)C [NCGC00016015-10] | -10 | -1.4 | 39.8 |  |  | 
30 | Cn1cnc2c1c(=O)[nH]c(=O)n2C [NCGC00016023-18] |  |  |  | -74 | 89.1 | Curve Class [3]: -3
31 | N#C/C(=C\c1ccc(O)c(O)c1)C(=O)NCCCNC(=O)/C(C#N)=C/c1ccc(O)c(O)c1 [NCGC00016027-04] | -24 | -1.2 |  |  |  | 
32 | N#C/C(=C\c1ccc(O)c(O)c1)C(=O)NCCc1ccccc1 [NCGC00016029-05] | -15 | -1.2 | 7.9 |  |  | 
33 | COC[C@H]1OC(=O)c2coc3c2[C@@]1(C)C1=C(C3=O)C2CCC(=O)[C@@]2(C)C[C@H]1OC(C)=O (some centres unmarked) [NCGC00016094-12] |  |  |  |  |  | Efficacy (%) (qHTS FP screen hits, Table S2): -33%; Curve Class [4]: -2.2; IC50 (qHTS FP screen hits, Table S2): 29.3 µM
34 | CCCOc1ccccc1-c1nc(=O)c2nn[nH]c2[nH]1 [NCGC00016105-05] | -22 | -1.4 | 14.1 |  |  | 
35 | CC(C)N(CCC(=O)c1ccc2ccccc2c1)Cc1ccccc1.Cl [NCGC00016107-09] | -65 | -1.2 | 28.2 |  |  | 
36 | COc1ccc(NS(=O)(=O)c2ccc(N)cc2)nn1 [NCGC00016324-09] |  |  |  | -139 | 39.8 | Curve Class [2]: -3
37 | Oc1c(I)cc(Cl)c2cccnc12 [NCGC00016391-13] |  |  |  | -32 | 56.2 | Curve Class [3]: -2.4
38 | CC(=O)O.Cc1cc2c(C(C)C)c(O)c(O)c(C=O)c2c(O)c1-c1c(C)cc2c(C(C)C)c(O)c(O)c(C=O)c2c1O [NCGC00016423-14] |  |  |  |  |  | Efficacy (%) (qHTS FP screen hits, Table S2): -64%; IC50 (qHTS FP screen hits, Table S2): 29.4 µM
39 | O=C(CCCN1CCC(n2c(=O)[nH]c3ccccc32)CC1)c1ccc(F)cc1 [NCGC00016602-04] |  |  |  | -58 | 50.1 | Curve Class [2]: -2.4
40 | COc1ccc2c(c1)C(=O)N(CCc1ccc(S(=O)(=O)NC(=O)NC3CCCCC3)cc1)C(=O)C2(C)C [NCGC00016819-06] | -31 | -2.4 | 44.7 |  |  | 
41 | Nc1cc(-c2ccncc2)c[nH]c1=O [NCGC00016896-06] |  |  |  | -48 | 50.1 | Curve Class [3]: -2.2
42 | CCC(C)(C)C(=O)O[C@H]1C[C@@H](C)C=C2C=C[C@H](C)[C@H](CC[C@@H]3C[C@@H](O)CC(=O)O3)[C@H]21 [NCGC00017324-07] |  |  |  | -17 |  | Curve Class [3]: -2.4
43 | CCCN1C[C@H](CSC)C[C@@H]2c3cccc4[nH]cc(c34)C[C@H]21 [NCGC00017366-05] | -29 | -2.2 | 50.1 |  |  | 
44 | Fc1ccc(C(c2ccc(F)cc2)N2CCN(C/C=C/c3ccccc3)CC2)cc1 [NCGC00018102-06] |  |  |  | -167 | 19.2 | Curve Class [2]: -2.1
45 | Cl.Cl.Nc1ccc(/N=N/c2ccccc2)c(N)n1 [NCGC00018130-09] |  |  |  | -22 | 79.4 | Curve Class [2]: -2.4
46 | COc1ccc(/C=C/C(=O)Nc2ccccc2C(=O)O)cc1OC [NCGC00018185-09] |  |  |  | -29 | 39.8 | Curve Class [3]: -2.2
47 | CC1=NN(c2ccccc2)C(=O)C1 [NCGC00018218-10] |  |  |  | -46 | 50.1 | Curve Class [3]: -2.2
48 | Cc1nnc(SCC2=C(C(=O)O)N3C(=O)[C@@H](NC(=O)Cn4cnnn4)[C@H]3SC2)s1 [NCGC00022653-06] | -21 |  |  |  |  | 
49 | CO[C@@]1(NC(=O)CSCC#N)C(=O)N2C(C(=O)[O-])=C(CSc3nnnn3C)CS[C@@H]21.[Na+] [NCGC00023016-07] |  |  |  | -29 | 50.1 | Curve Class [3]: -2.4
50 | Cc1ccc(Cl)c(Nc2ccccc2C(=O)O)c1Cl [NCGC00023217-06] |  |  |  | -57 | 44.7 | Curve Class [2]: -2.2
51 | CC[C@@H](CO)NC(=O)[C@@H]1C=C2c3cccc4c3c(cn4C)C[C@H]2N(C)C1 [NCGC00024027-09] |  |  |  |  |  | Efficacy (%) (qHTS FP screen hits, Table S2): -89%; Curve Class [4]: -2.2; IC50 (qHTS FP screen hits, Table S2): 44.7 µM
52 | COc1cccc2c1C(=O)c1c(O)c3c(c(O)c1C2=O)C[C@@](O)(C(C)=O)C[C@@H]3O[C@H]1C[C@H](N)[C@H](O)[C@H](C)O1 [NCGC00024246-15] |  |  |  | -61 | 15.2 | 
